The source of these data is patent US12497392B2, “EP300/CBP inhibitor” (HINOVA PHARMACEUTICALS INC., priority 2019, dated 2025).

Read-outs that look alike come from different tables or passages of the source.

One assay concerns the target CBP BRD (Homo sapiens (Human), UniProt Q92793). As to the kind of experiment: CBP AlphaScreen bromodomain (BRD) binding test. Here is the method: CBP and EP300AlphaScreen Test:
• 1. Prepare 1× concentration of test buffer • 2. Preparation of compound
The compound was firstly diluted in a ratio of 1:1000 relative to the final concentration using a Precision automatic sampler (by 3× gradient dilution method): • 1) 50 μL of compound solution with a storage concentration of 10 mM was transferred to A2 well of a 96-well plate using an Echo automatic sampler. • 2) 30 μL of DMSO was transferred to well A1, and wells A3 to A12 with Precision™. • 3) 15 μL solution was transferred from A2 to A3 by Precision, and this operation was sequentially repeated until 15 μL solution was transferred from well A10 to well A11. Thus, a 1:3 gradient dilution was completed. • 4) The compound plate was centrifuged at a speed of 1000 r/min for one minute. • 3. Preparation of test plate
20 nL of solution was transferred from each concentration well of the compound plate to the test plate using an Echo automatic sampler: from well A1 of the preparation plate to wells A1 and A2 of the test plate, and from well A2 of the preparation plate to wells A3 and A4 of the test plate. • 4. Binding test of bromodomain (BRD) • 1) Preparation of 2-fold solution of protein and polypeptide
The protein and polypeptide were dissolved in a 1× concentration of detection buffer. • 2) 10 μL of protein and polypeptide solution was transferred to each well in columns 3 to 24 in the test plate, and 10 μL of 1× test buffer was transferred to wells in columns 1 to 2 in the test plate as negative control. • 3) The test plate was centrifuged at a speed of 1000 r/min for one minute. • 4) The test plate was incubated at room temperature for 15 min. • 5) A 2-fold receptor and donor solution was prepared by dissolving acceptor and donor beads with one-fold test buffer. • 6) 2-fold receptor and donor solutions were transferred to the test plate.
15 μL of acceptor and donor solution was added and light was avoided. • 7) The test plate was centrifuged at a speed of 1000 r/min for one minute and then incubated at room temperature for 60 min. • 5. The Endpoints were Read in EnSpire and Alpha Modes. • 6. Curve fitting
The experimental data was entered into an Excel document and the inhibition rate Inh % was calculated using equation (1): Inh %=(Max−Signal)/(Max−Min)×100 Equation (1): wherein, Max: control containing DMSO, Min: low control containing DMSO,
The obtained data were entered into the XL-Fit software, and the IC50 value was calculated using equation (2): Y=Bottom+(Top−Bottom)/(1+10^((Log IC50−X)×Hill Slope)) Equation (2): II. Experimental Results

The next assay has as its system CWR22RV1 cells. In words: Proliferation of prostate cancer CWR22RV1 cells (CCK-8, 6 days). Format: cell-based. As to conditions: CWR22Rv1, 144 h; 6 days, CCK-8; class symbols; read-out: IC50 against CWR22RV1 cells. The protocol:
(§1) • (1) CWR22RV1 prostate cancer cells were subcultured in cell culture medium, and well-grown cells were inoculated into 96-well plates with 80 μL per well and 1500 cells per well, and then the plate was cultured overnight at 37° C. in a 5% CO2 incubator. • (2) Drug was prepared as 30 mM of stock solution with dimethylsulfoxide (DMSO). Prior to use, the stock solution was diluted in a ratio of 1:3 with DMSO and then further diluted in a ratio of 1:3 to obtain 9 gradient concentrations. Each concentration of compound was diluted in a ratio of 1:200 with culture medium (to ensure the concentration of DMSO in the culture system was 0.1%). Two wells were set for each concentration. 20 μL of diluted compound solution was added to the cell culture well (with a final concentration of 10 μM, 3.3 μM, 1.1 μM, etc.), and then the plate was gently shaken to mix well. In addition, three negative control wells containing only cells and three blank control wells containing only culture medium (6 wells being each added with DMSO diluted in a ratio of 1:200 using 20 μL of culture medium) were included. 2. Test Results: • (1) After the plate was cultured for 6 days, 10 μL of CCK-8 was added to each well, and then the plate was continually cultured in a 5% CO2 incubator at 37° C. for 2.5 h. • (2) The absorbance (OD value) was measured at 450 nm with a microplate reader. • (3) Data were analyzed using the Dose-response-inhibition equation in the software GraphPad Prisms 6 to obtain IC50 values. 3. Experimental Results

A further assay deals with VCAP. In words: Proliferation of VCAP prostate cancer cells (CCK-8). As to conditions: Homo sapiens; prostate cancer cell line VCAP; read-out: IC50 against VCAP. The format is cell-based. Here is the method: as §1
(§2) Using the same method as in Example 2, CWR22RV1 cells were replaced with tumor cells in Table 3, and for the inhibitory activities against these tumor cells, the IC50 values (nM) of the compounds according to the present invention were tested and calculated.

In another assay the test system is LNCAP-AR. In words: Proliferation of LNCAP-AR prostate cancer cells (CCK-8). The settings on record: prostate cancer cell line LNCAP-AR; read-out: IC50 against LNCAP-AR. The format is cell-based. The protocol: as §1, §2
For another assay, the system named is OPM-2. As to the kind of experiment: Proliferation of OPM-2 multiple myeloma cells (CCK-8). The format is cell-based. The settings on record: Homo sapiens; multiple myeloma cell line OPM-2; read-out: IC50 against OPM-2. Here is the method: as §1, §2
A further assay deals with MCF-7 cells. In words: Combination with CDK4/6 inhibitor palbociclib, proliferation of MCF-7 breast cancer cells. The format is cell-based. As to conditions: for IC50: Homo sapiens, read-out: IC50 against MCF-7 cells. Here is the method: Prior to use, the stock solution was diluted in a ratio of 1:3 with DMSO and then further diluted in a ratio of 1:3 to obtain 9 gradient concentrations. Each concentration of compound was diluted in a ratio of 1:200 with culture medium (to ensure the concentration of DMSO in the culture system was 0.1%). Two wells were set for each concentration. 20 μL of diluted compound solution was added to the cell culture well (with a final concentration of 10 μM, 3.3 μM, 1.1 μM, etc.); the stock solution of palbociclib was diluted with the culture medium as 500 nM, 150 nM, 50 nM, 5 nM, respectively, and then 20 μL of diluted palbociclib solution was added to the cell culture well ([…]). The plate was gently shaken to mix well. In addition, three negative control wells containing only cells and three blank control wells containing only culture medium (6 wells being each added with DMSO diluted in a ratio of 1:200 using 20 μL of culture medium) were included. 2. Test Results: • (1) After the plate was cultured for 6 days, 10 μL of CCK-8 was added to each well, and then the plate was continually cultured in a 5% CO2 incubator at 37° C. for 2.5 h. • (2) The absorbance (OD value) was measured at 450 nm with a microplate reader. • (3) Data were analyzed using the Dose-response-inhibition equation in the software GraphPad Prisms 6 to obtain IC50 values. 3. Experimental Results
Using the same method as in Example 4, CWR22RV1 cells were replaced with MCF-7 cells, and for the inhibitory activities against the proliferation of MCF-7 cells, the IC50 values (nM) of the compounds according to the present invention, palbociclib, and the combination of the compound according to the present invention and palbociclib were tested and calculated.

CBP BRD, sequence (Q92793 1085-1192): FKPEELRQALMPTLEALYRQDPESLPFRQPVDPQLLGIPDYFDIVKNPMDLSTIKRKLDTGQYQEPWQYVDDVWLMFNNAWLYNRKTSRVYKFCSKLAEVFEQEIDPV

By IC50 is commonly meant the concentration that inhibits the measured activity by half. As to `CCO[C@H]1CC[C@H](n2c([C@@H]3CCOC(=O)N3c3ccc(Cl)c(F)c3)nc3cc(-c4c(C)noc4C)ccc32)CC1` [Compound 172, (S)-3-(4-chloro-3-fluorophenyl)-4-(5-(3,5-dimethylisoxazol-4-yl)-1-((trans)-4-ethoxycyclohexyl)-1H-benzo[d]imidazol-2-yl)-1,3-oxazinane-2-one], the concentration for half-maximal inhibition (IC50) on CBP BRD is 2.3 nM; in the assay on CWR22RV1 cells, 500 to 2000 nM; in the assay on VCAP, below 500 nM; in the assay on LNCAP-AR, below 500 nM; with OPM-2 it was below 500 nM; in the assay with MCF-7 cells (MCF7, 172 in combination with 10 nM palbociclib) it was 27 nM. Also, the concentration for half-maximal inhibition (IC50) in the assay with MCF-7 cells (MCF7, 172 in combination with 100 nM palbociclib) was 9 nM; with MCF-7 cells (MCF7, 172 in combination with 300 nM palbociclib), 7 nM; in the assay with MCF-7 cells (MCF7, 172 in combination with 100-300 nM of palbociclib), below 10 nM; with MCF-7 cells (MCF7, administrated alone) it was 72 nM. Besides, the “effect of combination with palbociclib on MCF-7 breast cancer cells” value with MCF-7 cells (compound 172 + palbociclib, in words) was “synergistic inhibitory effect”.
